Data from ChEMBL document CHEMBL5029145, “Discovery of AZD8154, a Dual PI3Kγδ Inhibitor for the Treatment of Asthma” (J Med Chem, 2021).
≈ marks a conversion by molar mass, not a printed value.

Assays:
[1] = Dissociation constant, pKa of compound; type: physicochemical
[2] = Distribution coefficient, logD of compound at pH 7.4; type: physicochemical; conditions: octanol/water
[3] = target: Phosphatidylinositol 4,5-bisphosphate 3-kinase catalytic subunit gamma isoform (Homo sapiens, UniProt P48736); experiment: Inhibition of recombinant human PI3Kgamma assessed as reduction in ADP production using Dic8-PIP2 as substrate pre-treated for 15 mins followed by substrate addition measured after 60 mins by ADP-glo assay
[4] = target: Phosphatidylinositol 4,5-bisphosphate 3-kinase catalytic subunit alpha isoform (Homo sapiens, UniProt P42336); experiment: Inhibition of recombinant human PI3Kalpha assessed as reduction in ADP production using Dic8-PIP2 as substrate pre-treated for 15 mins followed by substrate addition measured after 60 mins by ADP-glo assay
[5] = Volume of distribution at steady state in rat at 0.5 mg/kg, iv; type: ADME, organism-based; conditions: in vivo, read-out: Vdss
[6] = Clearance in rat at 0.5 mg/kg, iv; type: ADME, organism-based; conditions: in vivo
[7] = Permeability in human Caco2 cells; type: ADME, cell-based; conditions: caco-2
[8] = Thermodynamic stability assessed as onset melting temperature; type: physicochemical
[9] = Half life in rat plasma at 0.5 mg/kg, iv; type: ADME, organism-based
[10] = Apparent terminal half life in rat administered via inhalation; type: ADME; conditions: in vivo, inhaled or intranasal
[11] = target: T1, Phosphatidylinositol 4,5-bisphosphate 3-kinase catalytic subunit delta isoform (Homo sapiens, UniProt O00329); experiment: Inhibition of PI3Kdelta in anti-IgM-stimulated human JeKo-1 cells assessed as inhibition of AKT phosphorylation at Ser473 residue incubated for 60 mins by TR-FRET assay
T1 sequence (O00329 whole entry): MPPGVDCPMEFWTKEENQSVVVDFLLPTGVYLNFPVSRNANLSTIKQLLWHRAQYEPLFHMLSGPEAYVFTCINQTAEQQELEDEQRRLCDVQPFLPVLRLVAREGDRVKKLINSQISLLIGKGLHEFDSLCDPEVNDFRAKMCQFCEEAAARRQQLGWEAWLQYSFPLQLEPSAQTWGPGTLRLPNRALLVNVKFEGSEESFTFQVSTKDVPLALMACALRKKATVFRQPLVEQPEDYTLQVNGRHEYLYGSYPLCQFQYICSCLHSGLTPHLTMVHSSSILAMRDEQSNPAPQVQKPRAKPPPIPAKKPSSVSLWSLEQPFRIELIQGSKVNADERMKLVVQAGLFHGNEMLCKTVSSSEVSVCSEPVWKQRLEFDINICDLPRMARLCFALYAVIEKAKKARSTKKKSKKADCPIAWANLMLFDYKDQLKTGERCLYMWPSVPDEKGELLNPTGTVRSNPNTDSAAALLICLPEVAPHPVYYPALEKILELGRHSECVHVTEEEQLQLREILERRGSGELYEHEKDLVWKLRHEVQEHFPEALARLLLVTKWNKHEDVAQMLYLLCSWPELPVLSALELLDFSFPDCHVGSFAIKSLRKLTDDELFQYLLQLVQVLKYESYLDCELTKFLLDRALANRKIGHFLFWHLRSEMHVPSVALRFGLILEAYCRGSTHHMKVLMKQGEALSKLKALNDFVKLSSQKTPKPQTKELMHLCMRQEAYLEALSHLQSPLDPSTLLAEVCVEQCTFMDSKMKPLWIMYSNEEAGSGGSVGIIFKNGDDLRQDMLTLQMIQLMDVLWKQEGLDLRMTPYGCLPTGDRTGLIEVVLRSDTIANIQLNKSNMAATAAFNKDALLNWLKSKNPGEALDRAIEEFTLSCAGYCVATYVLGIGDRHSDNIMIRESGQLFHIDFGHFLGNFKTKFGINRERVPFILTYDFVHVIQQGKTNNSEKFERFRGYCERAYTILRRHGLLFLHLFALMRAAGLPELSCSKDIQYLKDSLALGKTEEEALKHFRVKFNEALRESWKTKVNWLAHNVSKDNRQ

[12] = target: T1, Phosphatidylinositol 4,5-bisphosphate 3-kinase catalytic subunit delta isoform; experiment: Inhibition of recombinant human PI3Kdelta assessed as reduction in ADP production using Dic8-PIP2 as substrate pre-treated for 15 mins followed by substrate addition measured after 60 mins by ADP-glo assay
[13] = target: Phosphatidylinositol 4,5-bisphosphate 3-kinase catalytic subunit gamma isoform (Mus musculus, UniProt Q9JHG7); experiment: Inhibition of PI3Kgamma in C5a-stimulated mouse RAW 264 cells assessed as inhibition of AKT phosphorylation at Ser473 residue Pretreated for 15 mins followed by C5a stimulation measured after 3 mins by HTRF assay; type: cell-based
[14] = Solubility of compound in at pH 7.4 at 1 mg/ml using crystalline form of sample incubated for 24 hrs by HPLC MS analysis; type: physicochemical
[15] = target: Phosphatidylinositol 4-phosphate 3-kinase C2 domain-containing subunit beta (Homo sapiens, UniProt O00750); experiment: Inhibition of PIK3C2B (unknown origin) assessed as reduction in substrate phosphorylation by FRET Adapta assay
[16] = target: Phosphatidylinositol 4-phosphate 3-kinase C2 domain-containing subunit alpha (Homo sapiens, UniProt O00443); experiment: Inhibition of PIK3C2A (unknown origin) assessed as reduction in substrate phosphorylation by FRET Adapta assay
[17] = target: Phosphatidylinositol 3-kinase catalytic subunit type 3 (Homo sapiens, UniProt Q8NEB9); experiment: Inhibition of PIK3C3 (unknown origin) assessed as reduction in substrate phosphorylation by FRET Adapta assay
[18] = target: Phosphatidylinositol 4-kinase beta (Homo sapiens, UniProt Q9UBF8); experiment: Inhibition of PI4KB (unknown origin) assessed as reduction in substrate phosphorylation by FRET Adapta assay
[19] = target: Phosphatidylinositol 4-kinase alpha (Homo sapiens, UniProt P42356); experiment: Inhibition of PI4KA (unknown origin) assessed as reduction in substrate phosphorylation by FRET Adapta assay

Sequence of Phosphatidylinositol 4,5-bisphosphate 3-kinase catalytic subunit alpha isoform (P42336 whole entry, canonical isoform): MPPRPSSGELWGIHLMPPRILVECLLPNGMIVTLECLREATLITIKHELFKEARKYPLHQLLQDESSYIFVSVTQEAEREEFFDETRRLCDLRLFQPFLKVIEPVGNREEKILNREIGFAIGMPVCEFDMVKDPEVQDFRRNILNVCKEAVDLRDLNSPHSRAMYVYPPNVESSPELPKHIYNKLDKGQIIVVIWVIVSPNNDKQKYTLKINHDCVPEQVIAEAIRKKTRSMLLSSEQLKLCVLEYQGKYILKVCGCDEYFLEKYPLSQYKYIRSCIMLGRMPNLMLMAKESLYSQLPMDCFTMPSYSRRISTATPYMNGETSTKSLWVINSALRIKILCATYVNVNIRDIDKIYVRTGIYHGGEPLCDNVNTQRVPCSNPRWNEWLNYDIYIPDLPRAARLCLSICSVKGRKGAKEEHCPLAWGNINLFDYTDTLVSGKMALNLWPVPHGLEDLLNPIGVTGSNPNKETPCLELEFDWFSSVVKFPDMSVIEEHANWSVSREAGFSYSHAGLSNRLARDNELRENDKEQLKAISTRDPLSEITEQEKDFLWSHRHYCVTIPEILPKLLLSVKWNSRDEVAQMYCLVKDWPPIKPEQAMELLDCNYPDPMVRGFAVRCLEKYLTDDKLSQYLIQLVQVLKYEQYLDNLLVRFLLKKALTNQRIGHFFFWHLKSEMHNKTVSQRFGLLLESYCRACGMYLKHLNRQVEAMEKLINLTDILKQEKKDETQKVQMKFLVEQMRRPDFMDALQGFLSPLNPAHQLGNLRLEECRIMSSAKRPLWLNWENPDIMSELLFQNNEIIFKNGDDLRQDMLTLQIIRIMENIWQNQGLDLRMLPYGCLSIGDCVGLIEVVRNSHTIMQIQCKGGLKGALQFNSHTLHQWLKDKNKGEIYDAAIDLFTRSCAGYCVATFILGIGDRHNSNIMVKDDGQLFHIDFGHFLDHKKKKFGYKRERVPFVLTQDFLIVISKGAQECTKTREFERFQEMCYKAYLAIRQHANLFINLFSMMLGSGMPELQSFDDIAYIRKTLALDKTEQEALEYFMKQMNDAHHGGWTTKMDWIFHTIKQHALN
Sequence of Phosphatidylinositol 4,5-bisphosphate 3-kinase catalytic subunit gamma isoform (Mus musculus, UniProt Q9JHG7) (Q9JHG7 whole entry, canonical isoform): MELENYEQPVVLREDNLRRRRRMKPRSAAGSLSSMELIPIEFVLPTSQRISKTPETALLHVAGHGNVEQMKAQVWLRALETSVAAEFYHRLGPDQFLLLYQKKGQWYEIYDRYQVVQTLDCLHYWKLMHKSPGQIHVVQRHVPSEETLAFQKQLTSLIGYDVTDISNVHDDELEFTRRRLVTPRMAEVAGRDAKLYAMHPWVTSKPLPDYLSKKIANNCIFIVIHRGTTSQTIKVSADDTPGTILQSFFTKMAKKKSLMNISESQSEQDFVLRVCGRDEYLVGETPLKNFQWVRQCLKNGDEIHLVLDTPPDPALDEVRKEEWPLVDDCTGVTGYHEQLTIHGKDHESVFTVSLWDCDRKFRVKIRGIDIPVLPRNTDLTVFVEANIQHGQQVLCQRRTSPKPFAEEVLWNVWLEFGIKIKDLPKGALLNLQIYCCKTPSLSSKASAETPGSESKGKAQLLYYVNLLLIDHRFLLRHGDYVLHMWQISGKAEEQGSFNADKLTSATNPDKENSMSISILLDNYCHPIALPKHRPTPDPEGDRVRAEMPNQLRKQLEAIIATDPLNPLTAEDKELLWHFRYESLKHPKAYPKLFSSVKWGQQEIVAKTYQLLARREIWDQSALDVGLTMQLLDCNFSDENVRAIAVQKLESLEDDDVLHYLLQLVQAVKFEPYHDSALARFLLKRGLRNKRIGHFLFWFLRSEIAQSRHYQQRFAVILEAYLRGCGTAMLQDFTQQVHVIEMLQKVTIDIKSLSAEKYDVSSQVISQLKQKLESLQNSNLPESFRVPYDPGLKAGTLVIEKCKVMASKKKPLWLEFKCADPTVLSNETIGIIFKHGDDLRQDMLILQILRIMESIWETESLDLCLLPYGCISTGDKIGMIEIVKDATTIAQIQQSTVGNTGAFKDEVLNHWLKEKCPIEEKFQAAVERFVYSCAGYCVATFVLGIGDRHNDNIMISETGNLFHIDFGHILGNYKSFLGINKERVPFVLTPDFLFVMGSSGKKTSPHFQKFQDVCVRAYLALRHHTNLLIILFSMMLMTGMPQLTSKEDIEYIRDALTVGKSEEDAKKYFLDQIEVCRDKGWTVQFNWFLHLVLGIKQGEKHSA
Sequence of Phosphatidylinositol 4,5-bisphosphate 3-kinase catalytic subunit gamma isoform (Homo sapiens, UniProt P48736) (P48736 whole entry, canonical isoform): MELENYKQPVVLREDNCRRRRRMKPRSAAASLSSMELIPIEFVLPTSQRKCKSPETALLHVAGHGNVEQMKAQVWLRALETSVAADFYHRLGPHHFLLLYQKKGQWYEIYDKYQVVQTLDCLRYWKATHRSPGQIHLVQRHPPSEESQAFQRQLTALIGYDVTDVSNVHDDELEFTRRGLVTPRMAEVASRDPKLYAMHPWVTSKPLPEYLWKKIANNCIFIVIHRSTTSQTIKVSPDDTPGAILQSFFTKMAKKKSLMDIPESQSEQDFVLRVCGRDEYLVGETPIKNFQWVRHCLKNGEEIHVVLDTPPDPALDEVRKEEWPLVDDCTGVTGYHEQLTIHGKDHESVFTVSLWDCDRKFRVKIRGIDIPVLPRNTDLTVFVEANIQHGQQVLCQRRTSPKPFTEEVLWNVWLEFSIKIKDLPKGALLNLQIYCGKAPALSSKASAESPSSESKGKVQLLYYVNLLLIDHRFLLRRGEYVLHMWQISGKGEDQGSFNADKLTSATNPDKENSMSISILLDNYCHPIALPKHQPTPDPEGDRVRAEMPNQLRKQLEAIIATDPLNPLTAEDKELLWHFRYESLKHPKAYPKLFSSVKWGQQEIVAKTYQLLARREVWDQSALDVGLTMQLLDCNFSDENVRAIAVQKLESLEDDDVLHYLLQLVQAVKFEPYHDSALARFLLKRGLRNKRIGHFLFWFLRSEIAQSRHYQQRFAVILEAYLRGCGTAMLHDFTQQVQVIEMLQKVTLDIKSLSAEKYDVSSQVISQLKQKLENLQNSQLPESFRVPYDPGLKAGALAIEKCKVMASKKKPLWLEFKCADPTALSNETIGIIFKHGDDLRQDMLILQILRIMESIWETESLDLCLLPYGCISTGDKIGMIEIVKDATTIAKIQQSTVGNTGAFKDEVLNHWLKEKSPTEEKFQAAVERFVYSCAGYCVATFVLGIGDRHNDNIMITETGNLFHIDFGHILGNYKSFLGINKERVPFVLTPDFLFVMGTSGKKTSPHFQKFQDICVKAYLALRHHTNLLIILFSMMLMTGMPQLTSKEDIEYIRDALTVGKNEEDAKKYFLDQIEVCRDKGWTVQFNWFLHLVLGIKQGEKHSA
Sequence of Phosphatidylinositol 3-kinase catalytic subunit type 3 (Q8NEB9 whole entry): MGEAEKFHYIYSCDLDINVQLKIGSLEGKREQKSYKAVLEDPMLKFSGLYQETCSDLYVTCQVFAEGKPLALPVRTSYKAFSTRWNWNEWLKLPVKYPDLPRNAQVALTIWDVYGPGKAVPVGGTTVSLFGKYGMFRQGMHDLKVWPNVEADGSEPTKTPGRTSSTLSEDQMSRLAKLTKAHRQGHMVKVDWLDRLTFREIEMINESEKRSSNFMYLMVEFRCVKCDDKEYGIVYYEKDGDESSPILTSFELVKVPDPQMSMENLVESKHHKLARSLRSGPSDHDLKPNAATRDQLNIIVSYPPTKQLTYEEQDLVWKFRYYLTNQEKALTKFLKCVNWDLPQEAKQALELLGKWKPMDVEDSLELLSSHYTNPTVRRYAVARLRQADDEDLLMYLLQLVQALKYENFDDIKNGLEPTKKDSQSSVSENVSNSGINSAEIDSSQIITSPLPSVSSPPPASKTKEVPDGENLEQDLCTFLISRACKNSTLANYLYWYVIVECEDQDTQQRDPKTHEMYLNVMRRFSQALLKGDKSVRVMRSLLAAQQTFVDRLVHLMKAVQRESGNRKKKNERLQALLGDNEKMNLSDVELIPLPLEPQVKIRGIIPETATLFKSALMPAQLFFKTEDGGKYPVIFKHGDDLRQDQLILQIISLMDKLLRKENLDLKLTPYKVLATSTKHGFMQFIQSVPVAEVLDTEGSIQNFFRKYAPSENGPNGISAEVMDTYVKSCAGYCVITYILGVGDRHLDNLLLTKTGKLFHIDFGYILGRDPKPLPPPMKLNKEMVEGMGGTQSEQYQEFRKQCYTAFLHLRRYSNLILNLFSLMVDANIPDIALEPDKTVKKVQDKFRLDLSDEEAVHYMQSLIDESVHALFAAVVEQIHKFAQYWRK
Sequence of Phosphatidylinositol 4-kinase beta (Q9UBF8 whole entry): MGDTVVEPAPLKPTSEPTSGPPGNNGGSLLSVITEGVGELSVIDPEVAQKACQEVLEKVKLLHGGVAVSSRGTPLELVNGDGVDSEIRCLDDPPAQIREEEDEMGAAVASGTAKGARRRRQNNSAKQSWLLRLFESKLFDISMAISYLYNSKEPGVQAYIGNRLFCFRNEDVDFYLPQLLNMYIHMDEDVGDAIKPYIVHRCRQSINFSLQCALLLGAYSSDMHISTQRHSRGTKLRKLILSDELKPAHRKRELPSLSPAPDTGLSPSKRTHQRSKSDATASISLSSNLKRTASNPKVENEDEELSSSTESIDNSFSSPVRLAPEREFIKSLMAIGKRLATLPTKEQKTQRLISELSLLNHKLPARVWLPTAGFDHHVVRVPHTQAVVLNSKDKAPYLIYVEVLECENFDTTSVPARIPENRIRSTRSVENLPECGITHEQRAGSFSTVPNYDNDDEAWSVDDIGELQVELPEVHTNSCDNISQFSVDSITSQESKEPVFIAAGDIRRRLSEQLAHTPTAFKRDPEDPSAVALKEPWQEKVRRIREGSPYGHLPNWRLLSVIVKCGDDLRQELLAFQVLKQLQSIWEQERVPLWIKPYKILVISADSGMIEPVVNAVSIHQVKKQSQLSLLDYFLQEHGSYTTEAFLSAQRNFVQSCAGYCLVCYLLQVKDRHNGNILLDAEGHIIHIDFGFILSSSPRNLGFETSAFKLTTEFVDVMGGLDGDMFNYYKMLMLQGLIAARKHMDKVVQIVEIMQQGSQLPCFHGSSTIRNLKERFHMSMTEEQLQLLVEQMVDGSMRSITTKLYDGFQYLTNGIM

| pKa [1] | logD [2] | IC50 [3] [µM] | IC50 [4] [µM] | Vd [5] [L/kg] | clearance [6] [L/h/kg] | permeability [7] | Tm [8] [°C] | half-life [9] [h] | half-life [10] [h] | IC50 [11] [µM] | IC50 [12] [µM] | IC50 [13] [µM] | solubility thermodynamic at 24 h [14] [µM] | IC50 [15] [µM] | IC50 [16] [µM] | IC50 [17] [µM] | IC50 [18] [µM] | IC50 [19] [µM] | SMILES |
| --- | --- | --- | --- | --- | --- | --- | --- | --- | --- | --- | --- | --- | --- | --- | --- | --- | --- | --- | --- |
| 6.4 | 3.9 | 0.00158 | 0.0398 | 7.3 | 4.98 | Impermeable | 349 | 1.8 | 7.5 | 0.00316 | 0.000501 | 0.00158 | 1.09 (≈ 0.649 µg/mL) | – | – | – | – | – | Cc1nc2sc1-c1cc3c(c(c1)S(=O)(=O)NCCN(C)CCNC(=O)c1cccc(n1)N2)C(=O)N([C@@H](C)C1CC1)C3 |
| – | 3.7 | 0.00251 | 0.0398 | 8.6 | 6.6 | Permeable | 377 | 1.8 | 6.9 | 0.002 | 0.000631 | 0.000794 | 0.084 (≈ 0.0489 µg/mL) | 0.000794 | 0.316 | 0.0251 | 0.02 | > 10 | Cc1nc2sc1-c1cc3c(c(c1)S(=O)(=O)NCCOCCNC(=O)c1cccc(n1)N2)C(=O)N([C@@H](C)C1CC1)C3 |
| – | 3.5 | – | 0.1 | 5.4 | 8.16 | Impermeable | 187 | 0.7 | 4.2 | – | – | – | 0.337 (≈ 0.211 µg/mL) | – | 3.16 | 0.0316 | 0.501 | > 10 | Cc1nc(Nc2cccc(N3CCOCC3=O)n2)sc1-c1cc2c(c(S(=O)(=O)NC3COC3)c1)C(=O)N([C@@H](C)C1CC1)C2 |
